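48-hour exposure; five concentrations; linearly interpolated endpoints. TGI denotes the concentration required for complete inhibition of growth.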 Some results are limits rather than exact numbers.

Some test systems named below: M14 melanoma; OVCAR-4 ovarian; SK-MEL-5 melanoma; RXF 393 renal; UO-31 renal; OVCAR-8 ovarian; K-562 leukemia; SK-MEL-28 melanoma; RPMI-8226 leukemia.
Holding throughout (experiment): NCI-60 cell line screen, 48 h

On to `O=S(O)CCCCSSCCCCSSCCCCS(=O)O`, for which the TGI is 26.5 µM in the assay on M14 melanoma; 33.9 µM with OVCAR-4 ovarian; 24.3 µM in the assay with SK-MEL-5 melanoma; greater than 100 µM in the assay on RXF 393 renal; greater than 100 µM in the assay on UO-31 renal; greater than 100 µM in the assay with OVCAR-8 ovarian. For the same compound, the TGI in the assay on K-562 leukemia and in the assay with SK-MEL-28 melanoma was greater than 100 µM in each case.

Take `CSc1nc(NC2OC(COC(C)=O)C(OC(C)=O)C(OC(C)=O)C2OC(C)=O)c2c(OC(C)=O)c(C)c(=O)oc2n1` (stereo unspecified): the TGI with M14 melanoma, in the assay with OVCAR-4 ovarian, in the assay with SK-MEL-5 melanoma, in the assay with RPMI-8226 leukemia, with RXF 393 renal and in the assay with UO-31 renal was greater than 100 µM each time. The TGI with OVCAR-8 ovarian and with K-562 leukemia was greater than 100 µM in each case.

On to `CC(=O)NC(CCCN)C(=O)NCc1ccccc1` (stereo unspecified), for which the TGI in the assay on M14 melanoma, in the assay on OVCAR-4 ovarian, in the assay with SK-MEL-5 melanoma, in the assay on RPMI-8226 leukemia, in the assay with RXF 393 renal and in the assay with UO-31 renal was greater than 100 µM in each case. In addition, the TGI in the assay on OVCAR-8 ovarian, in the assay on K-562 leukemia and in the assay on SK-MEL-28 melanoma was greater than 100 µM in each case.

As for `Nc1c(-c2ccc(Br)cc2)[n+]([O-])c2ccccc2[n+]1[O-]`, the TGI was greater than 100 µM in the assay on M14 melanoma; greater than 100 µM in the assay on OVCAR-4 ovarian; greater than 100 µM in the assay on SK-MEL-5 melanoma; 78.3 µM in the assay on RPMI-8226 leukemia; greater than 100 µM with UO-31 renal; greater than 100 µM with OVCAR-8 ovarian. Also, the TGI in the assay on K-562 leukemia and with SK-MEL-28 melanoma was greater than 100 µM throughout.

Consider `C#CC[C@]12CC(=O)CC[C@H]1CC(=O)C2`, for which the TGI in the assay with M14 melanoma, with OVCAR-4 ovarian, in the assay on SK-MEL-5 melanoma, in the assay on RPMI-8226 leukemia, in the assay on RXF 393 renal and in the assay with UO-31 renal was greater than 100 µM throughout. Also, the TGI in the assay on OVCAR-8 ovarian, with K-562 leukemia and with SK-MEL-28 melanoma was greater than 100 µM in each case.

Turning to `Cc1ccc(C(=O)/C=C/c2ccccc2O)c(C)c1`, the TGI in the assay with M14 melanoma, with OVCAR-4 ovarian, with SK-MEL-5 melanoma, in the assay on RPMI-8226 leukemia, in the assay on RXF 393 renal and with UO-31 renal was greater than 100 µM each time. The TGI in the assay with OVCAR-8 ovarian, with K-562 leukemia and in the assay with SK-MEL-28 melanoma was greater than 100 µM in each case.

Consider `NCCCNCCSSCCCCS(=O)O`, for which the TGI is 44.2 µM in the assay with M14 melanoma; 28.2 µM in the assay on OVCAR-4 ovarian; 32.7 µM with SK-MEL-5 melanoma; greater than 100 µM in the assay with RPMI-8226 leukemia; 79.8 µM in the assay with RXF 393 renal; greater than 100 µM in the assay on UO-31 renal. Further, the TGI with OVCAR-8 ovarian is greater than 100 µM; in the assay on K-562 leukemia it was greater than 100 µM; in the assay on SK-MEL-28 melanoma it was 55.2 µM.

With `NC1C2(CCCCCC2)NC(=O)C12CCCCCC2` (stereo unspecified), the TGI with M14 melanoma, in the assay on OVCAR-4 ovarian, in the assay on SK-MEL-5 melanoma, in the assay with RXF 393 renal, in the assay on UO-31 renal and in the assay on OVCAR-8 ovarian was greater than 100 µM throughout. Further, the TGI in the assay on K-562 leukemia and in the assay with SK-MEL-28 melanoma was greater than 100 µM in each case.

`CC(=O)c1ccc(NC(=O)/C(Cc2ccccn2)=N/NC(=O)C[N+](C)(C)C)cc1`: the TGI in the assay on M14 melanoma, in the assay on OVCAR-4 ovarian, in the assay on SK-MEL-5 melanoma, in the assay on RPMI-8226 leukemia, in the assay on RXF 393 renal and in the assay with UO-31 renal was greater than 100 µM in each case. Moreover, the TGI in the assay with OVCAR-8 ovarian, in the assay with K-562 leukemia and in the assay with SK-MEL-28 melanoma was greater than 100 µM in each case.

In the case of `CCc1cccc(C)c1NC(C)=O`, the TGI in the assay on M14 melanoma, with OVCAR-4 ovarian, with SK-MEL-5 melanoma, with RPMI-8226 leukemia, in the assay with RXF 393 renal and in the assay with UO-31 renal was greater than 100 µM each time. Also, the TGI in the assay on OVCAR-8 ovarian, in the assay on K-562 leukemia and with SK-MEL-28 melanoma was greater than 100 µM in each case.

Regarding `N#CCCN(c1ccc(/C=C2\N=C(c3ccc(Cl)cc3)OC2=O)cc1)S(=O)(=O)c1ccccc1`, the TGI in the assay with M14 melanoma, in the assay with OVCAR-4 ovarian, with SK-MEL-5 melanoma, in the assay on RPMI-8226 leukemia, with UO-31 renal and in the assay with OVCAR-8 ovarian was greater than 100 µM in each case. Also, the TGI with K-562 leukemia and in the assay with SK-MEL-28 melanoma was greater than 100 µM throughout.

Consider `O=C(NC1CCCCCC1)C1C(=O)N(C2CCCCCC2)C(=O)/C1=N\O` (stereo unspecified), for which the TGI is greater than 100 µM with M14 melanoma; greater than 100 µM in the assay with OVCAR-4 ovarian; greater than 100 µM in the assay with SK-MEL-5 melanoma; 83.3 µM in the assay on RPMI-8226 leukemia; 48.2 µM in the assay with RXF 393 renal; 97.5 µM in the assay with UO-31 renal. Besides, the TGI with OVCAR-8 ovarian was greater than 100 µM; with K-562 leukemia, greater than 100 µM; with SK-MEL-28 melanoma it was 87 µM.

Regarding `Cc1ccc(N=NC(C(=O)c2ccccc2)C(=O)c2ccccc2)cc1`, the TGI in the assay on M14 melanoma is 34.5 µM; in the assay with OVCAR-4 ovarian, 61.6 µM; in the assay on SK-MEL-5 melanoma, 55.1 µM; with RPMI-8226 leukemia, 67.4 µM; in the assay with UO-31 renal, 44.4 µM; in the assay on OVCAR-8 ovarian, greater than 100 µM. Moreover, the TGI with K-562 leukemia was 88.2 µM; with SK-MEL-28 melanoma, greater than 100 µM.

In the case of `CCCCCCCCCCCCCCCCOP(=O)(O)Oc1ccc(/C=C\c2ccc(OP(=O)(O)OCCCCCCCCCCCCCCCC)cc2)cc1`, the TGI in the assay with M14 melanoma was greater than 100 µM; in the assay on OVCAR-4 ovarian, greater than 100 µM; with SK-MEL-5 melanoma, greater than 100 µM; in the assay with RPMI-8226 leukemia, 80 µM; with RXF 393 renal, 9.1 µM; in the assay with UO-31 renal it was greater than 100 µM. In addition, the TGI in the assay with OVCAR-8 ovarian was 56.1 µM; in the assay with K-562 leukemia, greater than 100 µM; in the assay with SK-MEL-28 melanoma, greater than 100 µM.

Regarding `Cc1cc(NS(=O)(=O)c2ccc(NC(=O)c3cccc4c(=O)c5ccccc5[nH]c34)cc2)no1`, the TGI is greater than 100 µM in the assay on OVCAR-4 ovarian; greater than 100 µM in the assay on SK-MEL-5 melanoma; greater than 100 µM with RPMI-8226 leukemia; 72.8 µM in the assay with UO-31 renal; 67.4 µM with OVCAR-8 ovarian; greater than 100 µM in the assay on K-562 leukemia. In the assay on SK-MEL-28 melanoma, this compound showed a TGI greater than 100 µM.

In the case of `COC(=O)C(=O)C(C(=O)C=C(C)C)C(=O)C(=O)Nc1ccc(Cl)cc1C` (stereo unspecified), the TGI in the assay on M14 melanoma, in the assay on OVCAR-4 ovarian, in the assay with SK-MEL-5 melanoma, in the assay on RPMI-8226 leukemia, with RXF 393 renal and in the assay with UO-31 renal was greater than 100 µM throughout. The TGI with OVCAR-8 ovarian, in the assay with K-562 leukemia and in the assay on SK-MEL-28 melanoma was greater than 100 µM in each case.

For the origin of these results see PubChem BioAssay (NCI).
